Columns and labels:
NK1 receptor = target: T1, NK1 receptor (Cavia porcellus, UniProt P30547); assay: Antagonism of iodinated tachykinin binding: NK1 receptor affinity in guinea pig lungs (125I-Bolton Hunter Lys-3 labeled substance P); details: 125I-substance P 0.1 nM, 90 min room temperature, mean of several experiments
T1 construct: evaluated in guinea pig lungs; tissue Keystone Biologicals, Cleveland, Ohio; host or cells: guinea pig lung
Procedure: (§1) The NK1 receptor affinity of proposed tachykinin antagonists was evaluated in guinea pig lungs (Keystone Biologicals, Cleveland, Ohio) and affinity for the NK2 receptor evaluated in HSKR-1 cells (which are mouse 3T3 fibroblasts expressing the human jejunal NK2 receptor). Tissues or cells were homogenized with a Polytron in 15 volumes of 50 mM Tris-HCl buffer (pH 7.4, 4° C.) and centrifuged. The pellet was resuspended in Tris-HCl buffer and was centrifuged; the pellet was washed twice by resuspension. The final pellet was resuspended at a concentration of 40 mg/ml for tissues and 20 mg/ml for cells in incubation buffer and remained at room temperature for at least 15 min prior to use. Receptor binding was initiated by addition of 250 ul membrane preparation in duplicate to 0.1 nM of the following radioligands: ^125 I-Bolton Hunter Lys-3 labeled substance P and ^125 iodohistidyl-1-neurokinin A; in a final volume of 500 ul of buffer containing 50 mM Tris-HCl (pH 7.4 at room temperature), 0.1% bovine serum albumin, 2 mM MnCl2, 40 ug/ml bacitracin, 4 μg/ml leupeptin and chymostatin, 1 μM thiorphan and various doses of the putative tachykinin antagonists. Incubations were performed at room temperature for 90 min (NK1 receptor assays) or 2 hr (NK2 receptor assay); binding was terminated by addition of 50 mM Tris-HCl buffer (pH 7.4, 4° C.) and filtration under vacuum through GF/B filters presoaked with 0.1% polyethyleneimine (NK, receptor assays) or 0.5% bovine serum albumin (NK2 receptor assay). Filter bound radioactivity was quantitated in a gamma counter. Nonspecific binding was defined as binding in the presence of 1 μM substance P or neurokinin A. Specific binding was calculated by subtracting nonspecific binding from total binding. Competition of iodinated SP or NKA binding by test compounds or standards was expressed as a percentage of this maximum competition. IC50 values (concentration required to inhibit 50% of receptor binding) were generated for each of the test compounds by nonlinear regression using an iterative curve fitting program (GraphPAD Inplot, San Diego, Calif.).
(§2) IC50 values for some of the compounds of the present invention are found in Table 1 and represent the mean of several experiments.

[1] = target: T2, human jejunal NK2 receptor (Homo sapiens, UniProt P21452); assay: Antagonism of iodinated tachykinin binding: NK2 receptor affinity in HSKR-1 cells (125 iodohistidyl-1-neurokinin A); details: HSKR-1 cells (mouse 3T3 fibroblasts expressing human jejunal NK2 receptor); 125I-neurokinin A 0.1 nM; 2 hr room temperature; mean of several experiments
T2 construct: expressed in transfected cells; host or cells: HSKR-1 cells (mouse 3T3 fibroblasts)
T2 sequence (P21452 1-398): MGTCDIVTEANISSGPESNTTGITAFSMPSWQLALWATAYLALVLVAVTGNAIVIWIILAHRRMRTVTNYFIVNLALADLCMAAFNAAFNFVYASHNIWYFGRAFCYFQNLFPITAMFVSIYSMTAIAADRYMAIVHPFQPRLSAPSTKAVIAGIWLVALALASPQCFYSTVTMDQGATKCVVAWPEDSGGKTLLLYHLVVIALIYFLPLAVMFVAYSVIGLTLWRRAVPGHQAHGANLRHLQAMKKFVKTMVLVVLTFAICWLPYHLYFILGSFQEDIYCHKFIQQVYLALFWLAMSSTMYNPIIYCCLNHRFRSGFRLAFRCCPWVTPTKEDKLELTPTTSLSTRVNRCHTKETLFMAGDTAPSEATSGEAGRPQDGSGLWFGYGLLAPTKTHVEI
Procedure: as §1, §2

T1 sequence (P30547 whole entry): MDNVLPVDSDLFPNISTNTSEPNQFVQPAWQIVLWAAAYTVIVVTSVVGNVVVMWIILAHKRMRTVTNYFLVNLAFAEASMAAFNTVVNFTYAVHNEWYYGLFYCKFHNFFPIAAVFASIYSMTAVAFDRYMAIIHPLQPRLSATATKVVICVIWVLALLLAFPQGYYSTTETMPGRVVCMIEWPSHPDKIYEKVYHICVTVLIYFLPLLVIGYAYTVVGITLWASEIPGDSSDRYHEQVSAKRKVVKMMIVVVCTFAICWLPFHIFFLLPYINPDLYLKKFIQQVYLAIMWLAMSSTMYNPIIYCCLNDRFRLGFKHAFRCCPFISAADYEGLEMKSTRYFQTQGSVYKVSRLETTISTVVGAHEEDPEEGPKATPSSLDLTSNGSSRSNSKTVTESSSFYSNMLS

Structure (SMILES) | IC50 (NK1 receptor) | IC50 [1]
CC(Cc1c[nH]c2ccccc12)NCCN[C@@H](Cc1ccccc1)C(=O)N(C)Cc1ccccc1 (mixture of isomers) [Compound No. 11, (S)-N-Benzyl-N-methyl-2-[[(R and S)-2-(1H-indol-3-yl)-1-methyl-ethylamino]-ethylamino]-3-phenyl-propionamide] | 953 nM | 131 nM
CN(Cc1ccccc1)C(=O)[C@H](Cc1ccccc1)NCCN[C@@H](Cc1c[nH]c2ccccc12)C(N)=O [Compound No. 7, (S)-N-Benzyl-N-methyl-2-[[(S)-2-(1H-indol-3-yl)-1-carboxylic acid amide-ethylamino]-ethylamino]-3-phenyl-propionamide] | 472 nM | 211 nM
COC(=O)[C@H](Cc1c[nH]c2ccccc12)NCCN[C@@H](Cc1ccccc1)C(=O)N(C)Cc1cc(OC)c(OC)c(OC)c1 [Compound No. 8, (S)-N-(3,4,5-Trimethoxybenzyl)-N-methyl-2-[[(S)-2-(1H-indol-3-yl)-1-carboxymethyl-ethylamino]ethylamino]-3-phenyl-propionamide] | 711 nM | 1990 nM
CN(Cc1ccccc1)C(=O)[C@H](Cc1ccccc1)NCCNCCc1c[nH]c2ccccc12 [Compound No. 9] | 778 nM | 114 nM
COC(=O)[C@H](Cc1c[nH]c2ccccc12)NCCN[C@@H](Cc1ccccc1)CN(C)C(=O)c1cc(OC)c(OC)c(OC)c1 [Compound No. 10, N-Methyl-N-[(S)-2-[[(S)-2-(1H-indol-3-yl)-1-carboxymethyl-ethylamino]-ethylamino]-3-phenyl-propyl]-(3,4,5-trimethoxy)benzamide] | 631 nM | 2560 nM
COC(=O)[C@H](Cc1ccccc1)NCCN[C@@H](Cc1ccccc1)C(=O)N(C)Cc1ccccc1 [Compound No. 12, (S)-N-Benzyl-N-methyl-2-[[(S)-2-phenyl-1-carboxymethyl-ethylamino]-ethylamino]-3-phenyl-propionamide] | 1430 nM | 1440 nM
COC(=O)[C@@H](NCCN[C@@H](Cc1ccccc1)C(=O)N(C)Cc1ccccc1)c1ccccc1 [Compound No. 13, (S)-N-Benzyl-N-methyl-2-[[(S)-1-phenyl-1-carboxymethyl-methylamino]-ethylamino]-3-phenyl-propionamide] | 2410 nM | 4710 nM

Other lines, results leading:

IC50 (NK1 receptor) | IC50 [1] | Structure (SMILES)
61.5 nM | 632 nM | COC(=O)[C@H](Cc1c[nH]c2ccccc12)NCCN[C@@H](Cc1ccc2ccccc2c1)C(=O)N(C)Cc1ccc(Cl)c(Cl)c1 [Compound No. 2, (S)-N-(3,4-Dichlorobenzyl)-N-methyl-2-[[(S)-2-(1H-indol-3-yl)-1-carboxymethyl-ethylamino]-ethylamino]-3-(naphth-2-yl)-propionamide]
929 nM | 215 nM | COC(=O)[C@@H](Cc1c[nH]c2ccccc12)NCCN[C@@H](Cc1ccccc1)C(=O)N(C)Cc1ccccc1 [Compound No. 3, (S)-N-Benzyl-N-methyl-2-[[(R)-2-(1H-indol-3-yl)-1-carboxymethyl-ethylamino]-ethylamino]-3-phenyl-propionamide]
146 nM | 271 nM | COC(=O)[C@H](Cc1c[nH]c2ccccc12)NCCN[C@@H](Cc1ccccc1)C(=O)N(C)Cc1ccccc1OC [Compound No. 4, (S)-N-(2-Methoxybenzyl)-N-methyl-2-[[(S)-2-(1H-indol-3-yl)-1-carboxymethyl-ethylamino]-ethylamino]-3-phenyl-propionamide]
78.1 nM | 284 nM | COC(=O)[C@H](Cc1c[nH]c2ccccc12)NCCN[C@@H](Cc1ccc2ccccc2c1)C(=O)N(C)Cc1ccccc1 [Compound No. 5]
294 nM | 228 nM | COC(=O)[C@H](Cc1c[nH]c2ccccc12)NCCN[C@@H](Cc1ccccc1)C(=O)N(C)Cc1ccccc1 [Compound No. 6, (S)-N-Benzyl-N-methyl-2-[[(S)-2-(1H-indol-3-yl)-1-carboxymethyl-ethylamino]-ethylamino]-3-phenyl-propionamide]
